Results taken from patent US11872200B2, “GABA agonists in the treatment of disorders associated with metabolic syndrome and GABA combinations in treatment or prophylaxis of type I diabetes” (The Regents of the University of California, priority 2010, dated 2024).

Tests used:
β-cells = assay: STZ oxidative-stress induced β-cell apoptosis, pancreas sections co-stained with TUNNEL and anti-insulin; format: in vivo, C57Bl/6 mice; settings: for relative area of insulin+ cells to the total area of the islets: 48 hours after STZ (FIG. 10C); for STZ mediated oxidative-stress-induced apoptosis: 48 hours after STZ, N=4 mice/group (FIG. 10A)
Protocol: C57Bl/6 mice received a moderate dose of STZ and then given plain water (control), water+GABA, or water+baclofen (a GABAB-R agonist). 48 hours later their pancreas were removed and sections co-stained with TUNNEL and anti-insulin.
N=4 mice/group, at least 100 islets analyzed per group.

newly diabetic NOD mice = assay: Reversal of hyperglycemia in newly diabetic NOD mice; format: in vivo; settings: GABA 6 mgs/ml in drinking water, GAD/alum 100 μg sc on day 1 and 14 (FIG. 9)
Protocol: Mice were considered diabetic after two blood glucose>250 mgs/dL. […] Data shown are blood glucose levels in individual mice given no treatment (FIG. 9A), GABA alone (6 mgs/ml in drinking water) (FIG. 9B), or GABA+GAD/alum (100 μg sc on day 1 and 14) (FIG. 9C).

[1] = test system: syngenic islet grafts in diabetic NOD mice; assay: Syngenic islet graft survival in diabetic NOD mice; format: in vivo; settings: diabetic NOD mice treated 28 days, then NOD.scid islets under kidney capsule; 10 week observation period (FIG. 8)
Description: Mice were given insulin as needed. After 28 days the mice received NOD.scid islets under their kidney capsule and insulin treatment was discontinued. Data shown are individual mouse blood glucose levels post-transplantation (FIG. 8A-8D). […] Dashed line indicates blood glucose of 250 mgs/dL.

HFD-fed mice = assay: GABA in drinking water of high fat diet (HFD) fed mice; format: in vivo
Protocol: Mice were fed high fat diet (HFD) or “western diet” causing them to gain weight, become obese, and develop glucose intolerance, insulin resistance, and metabolic syndrome. The mice were provided either normal water, or water that contained GABA (6 mg/ml). The weight, food intake, water intake, glucose tolerance, insulin sensitivity and blood glucose levels of the mice was monitored over 5 months.

Treg responses = assay: In vitro culture system with IL-2 and anti-CD3; format: cell-based; settings: preliminary data; IL-2 and anti-CD3 in an in vitro culture system
Description: It is noted that the GABA treatment can both suppress autoimmune responses by working on GABA-A receptors on immune cells, and promote B-cell survival through their GABA-B receptors.

NCC(CC(=O)O)c1ccc(Cl)cc1 (racemic) [baclofen, (RS)-4-amino-3-(4-chlorophenyl)butanoic acid, reference compound]
relative area of insulin+ cells to the total area of the islets (β-cells): greater β-cell area, but this did not reach the level of statistical significance | STZ mediated oxidative-stress-induced apoptosis (β-cells; baclofen in water): significantly inhibits

insulin B-chain: β-cell antigen used as antigen-based therapy
reversal of hyperglycemia (newly diabetic NOD mice): cannot reverse hyperglycemia

GAD/alum: glutamic acid decarboxylase (GAD) β-cell antigen vaccine given with alum adjuvant
time until mice became diabetic again after receiving the graft [1]: about 3 weeks | reversal of hyperglycemia (newly diabetic NOD mice): cannot reverse hyperglycemia

NCCCC(=O)O [GABA, 4-aminobutanoic acid]
glucose tolerance (HFD-fed mice; GABA 6 mg/ml in water (FIG. 3)): improved | insulin sensitivity (HFD-fed mice; GABA 6 mg/ml in water (FIG. 4)): improved | fasting blood glucose levels (HFD-fed mice; GABA 6 mg/ml in water (FIG. 5)): reduced | HFD-induced obesity (body weight) (HFD-fed mice; GABA 6 mg/ml in water (FIG. 6)): mitigated | infiltration of macrophages into white adipose tissue (HFD-fed mice; GABA 6 mg/ml in water (FIG. 7, top panel)): inhibited | mass of adipocytes (HFD-fed mice; GABA 6 mg/ml in water (FIG. 7 bottom panel)): significantly reduced | time until mice became diabetic again after receiving the graft [1]: about 3 weeks | Treg responses (Treg responses): can promote Treg responses | insulin-expressing cells per 100 islet cells (β-cells; 48 hours after STZ (FIG. 10B)): preserving insulin-expressing β-cell s | relative area of insulin+ cells to the total area of the islets (β-cells): preserve the area of insulin producing β-cells | STZ mediated oxidative-stress-induced apoptosis (β-cells; GABA 2 mg/ml in water): significantly inhibits | STZ mediated oxidative-stress-induced apoptosis (β-cells; GABA 6 mgs/ml in water): significantly inhibits | reversal of hyperglycemia (newly diabetic NOD mice): prolongs a state of modest hyperglycemia for a short period, after which the mice progress to severe hyperglycemia
